Our source for the GI50 and TGI values is PubChem BioAssay (NCI).

Common to all, as to assay: growth of human tumour cells (NCI), 48 h
Assay [1] deals with PC-3 prostate.
In assay [2] the test system is MDA-MB-231 breast.
Assay [3] concerns 786-0 renal.
Assay [4] has as its system OVCAR-3 ovarian.
Assay [5] has as its system NCI-H522 lung.
In assay [6] the test system is TK-10 renal.
The subject of assay [7] is MDA-MB-435.
In assay [8] the test system is MALME-3M melanoma.
The test system of assay [9] is HL-60(TB) leukemia.
Assay [10] concerns SF-295 CNS.

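Assay format: 96-well plates, 48-hour exposure. GI50: concentration for 50% inhibition of growth. TGI: total growth inhibition.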

With `CC(=O)N1C/C(=C/c2ccc(Cl)cc2)C(=O)/C(=C/c2ccc(Cl)cc2)C1`, the GI50 in assay [1] was 0.47 µM; in assay [2], 1.15 µM; in assay [3], 0.575 µM; in assay [4], 0.583 µM; in assay [5], 1.35 µM; in assay [6] it was 1.94 µM. Besides, the GI50 was 0.43 µM in [7], 1.94 µM in [8], 0.924 µM in [9] and 1.08 µM in assay [10]. For the same molecule, the TGI in assay [1] amounted to 2.28 µM; in assay [2], 3.23 µM; in [3], 1.87 µM; in [4], 1.79 µM; in assay [5], 2.83 µM; in assay [6] it was 4.1 µM. Moreover, the TGI worked out at 1.82 µM in [7], 4.14 µM in assay [8], 3.95 µM in assay [9] and 3.02 µM in assay [10].

As to `Nc1c2c(c(O)c3c1=C(CO)C=N3)=NCCS2`, the GI50 is 0.287 µM in assay [1]; 0.296 µM in [2]; 0.317 µM in assay [3]; 0.164 µM in assay [4]; 0.191 µM in assay [5]; 0.42 µM in assay [6]. For the same molecule, the GI50 in assay [7] was 0.0521 µM; in [8] it was 0.0347 µM; in [9] it was 0.222 µM; in [10], 0.177 µM. The TGI was found to be 1.05 µM in assay [1]; 0.834 µM in assay [2]; 1.23 µM in assay [3]; 0.35 µM in [4]; 0.43 µM in assay [5]; 1.46 µM in [6]. The TGI worked out at 0.169 µM in assay [7], 0.108 µM in [8], 0.512 µM in assay [9] and 0.33 µM in assay [10].

As for `CNC(=O)c1ccc(N2C(=S)N(c3ccc(C#N)c(C(F)(F)F)c3)C(=O)C2(C)C)cc1F`, the GI50 in [1] is 30.3 µM; in assay [2], greater than 38.6 µM; in assay [3] it was greater than 44.2 µM; in assay [4], 36.5 µM; in assay [5] it was 50.9 µM; in assay [6], greater than 54.8 µM. Besides, the GI50 in [7] is 41.9 µM; in [8], 20.9 µM; in [9], 33.7 µM; in assay [10] it was 28.9 µM. The TGI was greater than 100 µM in assay [1]; greater than 60.6 µM in assay [2]; greater than 73.5 µM in assay [3]; greater than 84.5 µM in [4]; greater than 100 µM in assay [5]; greater than 100 µM in assay [6]. The TGI was greater than 79.3 µM in assay [7], greater than 82.1 µM in assay [8], greater than 100 µM in assay [9] and greater than 75.9 µM in assay [10].

`CNC(=S)NC(=O)c1c(Cl)n(C(=O)OC(C)(C)C)c2ccccc12`: the GI50 in assay [1] was 25.5 µM; in assay [2], 33.7 µM; in assay [3] it was 91.1 µM; in [4] it was 38.1 µM; in assay [5], 30.6 µM; in assay [6], 97.5 µM. Further, the GI50 in assay [7] was 44 µM; in assay [8], greater than 100 µM; in assay [9] it was 79.7 µM; in assay [10] it was 56.4 µM. Moreover, the TGI in [1] is greater than 100 µM; in assay [2], greater than 100 µM; in assay [3], greater than 100 µM; in assay [4], greater than 100 µM; in assay [5], 90.9 µM; in assay [6] it was greater than 100 µM. Further, the TGI in assay [7], in [8], in assay [9] and in assay [10] was greater than 100 µM throughout.

On to `COc1cc(N2CCC(N3CCN(C)CC3)CC2)ccc1Nc1ncnc(Nc2ccccc2S(=O)(=O)C(C)C)n1`, for which the GI50 in assay [1] was 5.33 µM; in assay [2] it was 3.31 µM; in assay [3], 8.55 µM; in assay [4] it was 7.33 µM; in assay [5] it was 4.65 µM; in [6], 5.21 µM. For the same molecule, the GI50 in [7] is 2.6 µM; in assay [8], 3.12 µM; in [9], 11.7 µM; in assay [10], 4.55 µM. For the same molecule, the TGI in [1] was greater than 51.4 µM; in [2], 18.5 µM; in [3] it was 22.9 µM; in assay [4], 28.1 µM; in assay [5], 14 µM; in assay [6], 22 µM. Also, the TGI in assay [7] turned out to be 10.2 µM; in assay [8] it was 20.2 µM; in [9], 32.2 µM; in assay [10], 24 µM.

Take `COc1ccc(NC([Se])=NC23CC4CC(CC(C4)C2)C3)cc1`: the GI50 was 0.696 µM in [1]; 1.79 µM in assay [2]; 1.78 µM in [3]; 1.39 µM in assay [4]; 1.23 µM in assay [5]; 2.1 µM in assay [6]. The GI50 in [7] is 2.84 µM; in assay [8], 0.653 µM; in assay [9] it was 2.15 µM; in assay [10], 1.52 µM. In addition, the TGI worked out at 32.2 µM in assay [1]; 3.91 µM in assay [2]; 4.22 µM in assay [3]; 3.21 µM in assay [4]; 4.35 µM in assay [5]; 5.52 µM in [6]. The TGI in assay [7] is 19.5 µM; in [8], 3.74 µM; in [9], 5.91 µM; in assay [10] it was 4.15 µM.

Regarding `Cc1ccc(NC2=C(Cl)C(=O)N(Cc3ccc(Cl)cc3)C2=O)cc1O`, the GI50 was 5.5 µM in assay [1]; 9.75 µM in assay [2]; 0.753 µM in assay [3]; 8.88 µM in assay [4]; 11.6 µM in assay [5]; 15.2 µM in assay [6]. Further, the GI50 is 4.45 µM in assay [7], 5.23 µM in [8], 54.8 µM in assay [9] and 4.04 µM in [10]. Moreover, the TGI in [1] amounted to 35.6 µM; in [2], 32.4 µM; in assay [3], 18.8 µM; in assay [4], 38.5 µM; in assay [5], 34.3 µM; in assay [6], 32.4 µM. For the same molecule, the TGI in assay [7] is 26.2 µM; in assay [8], 26.9 µM; in [9], greater than 100 µM; in assay [10], 19.8 µM.

`O=c1ccs[nH]1`: the TGI in assay [1] was 31.4 µM; in assay [2], 28.6 µM; in assay [3], 21.4 µM; in assay [4], 21.7 µM; in assay [5] it was 1.75 µM; in assay [6], 32.8 µM. Moreover, the TGI amounted to 31 µM in assay [7], 35.5 µM in assay [8], 25 µM in assay [9] and 54.2 µM in assay [10].
